Experimental data published in patent US6596694B2, “Caloporoside derivatives, methods of their preparation and use” (Aventis Pharma Deutschland GmbH, priority 2001, dated 2003).

Biological target: cyclin D1/CDK4 (Homo sapiens, UniProt P11802)
Experiment: Bioassay for CDK-4 inhibitors (phosphorylation of biotinylated peptide substrate, 33P-γ-ATP, flash plates)
Format: biochemical
Details: 2 μM ATP, 2 hours at 37° C., 10 concentrations; read-out: IC50 (concentration which deactivates 50% of CDK-4)
Experimental: In order to detect the inhibitors of cyclin-dependent kinases (CDKs), use is made of a test in which the phosphorylation rate by the cyclin-dependent kinases of a specific peptide substrate is measured. The cyclin-dependent kinases are activated when the kinase binds to its respective cyclin. A [γ-P]-phosphate is transferred from [γ-P]-ATP to the peptide substrate by the activated CDK. The test is carried out in 96-well microtiter plates. The radioactivity of the [γ-P]-phosphate on the substrate is measured.
IC50 values for the caloporoside derivatives are shown in Table 1; this is the concentration which deactivates 50% of CDK-4.
For the determination of the IC50 value, stock solutions of the caloporoside derivatives according to the invention were prepared in a concentration of 10 mM. […] flash plates were coated with 50 μl (50 μg/well) of biotinylated peptide substrate at room temperature, incubated for 2 hours, and subsequently washed 3× with PBS buffer. For the reaction, 30 μl of a buffer-diluted solution of the caloporoside derivatives and 20 μl of a pre-mixed ATP/cyclin D1/CDK4 solution (final concentration: 1 μCl of 33P-γ-ATP, 2 μM of ATP and 1 μg of enzyme mixture) were pipetted onto the plates. After a reaction time of 2 hours at 37° C., the plates were washed 3× with 80 μl of 3% phosphoric acid. Radioactivity was subsequently measured for 30 seconds in a MicroBeta counter. The percentage inhibition was determined with the aid of mathematical equations. For the determination of IC50 values, 10 different concentrations of the compounds according to the invention in a freshly diluted DMSO solution were tested.

Chain of cyclin D1/CDK4 (P11802 whole entry, species assumed): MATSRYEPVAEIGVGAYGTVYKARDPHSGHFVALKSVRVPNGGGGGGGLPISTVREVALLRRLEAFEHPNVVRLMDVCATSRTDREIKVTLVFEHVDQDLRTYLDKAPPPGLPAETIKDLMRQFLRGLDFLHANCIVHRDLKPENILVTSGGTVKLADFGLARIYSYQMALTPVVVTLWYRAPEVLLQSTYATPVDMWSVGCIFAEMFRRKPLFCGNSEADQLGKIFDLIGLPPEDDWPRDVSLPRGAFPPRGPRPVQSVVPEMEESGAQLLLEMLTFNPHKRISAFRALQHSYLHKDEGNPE
Chain of cyclin D1/CDK4 (P24385 whole entry partner, species assumed): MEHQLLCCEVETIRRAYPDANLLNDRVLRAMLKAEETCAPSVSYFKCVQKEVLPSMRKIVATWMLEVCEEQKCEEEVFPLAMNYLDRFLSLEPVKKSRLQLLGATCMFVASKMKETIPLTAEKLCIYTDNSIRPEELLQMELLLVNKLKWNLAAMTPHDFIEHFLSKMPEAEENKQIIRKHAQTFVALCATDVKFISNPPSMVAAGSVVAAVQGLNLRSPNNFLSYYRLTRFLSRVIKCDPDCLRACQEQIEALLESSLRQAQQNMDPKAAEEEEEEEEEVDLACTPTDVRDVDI

| IC50 [µM] | Structure (SMILES) |
| --- | --- |
| 1.5 | CC(=O)Oc1cccc(CCCCCCCCCCCCCCCC(C)OC(=O)C(O)C(O)C(O)C(CO)OC2OC(CO)C(O)C(O)C2O)c1C(=O)O (centres unmarked) [Caloporoside B] |
| 3.1 | CC(=O)Oc1cccc(CCCCCCCCCCCCCCCC(C)OC(=O)C(O)C(O)C(O)C(COC(=O)CC(=O)O)OC2OC(CO)C(O)C(O)C2OC(C)=O)c1C(=O)O (centres unmarked) [Caloporoside C] |
| 1.8 | CC(=O)OC1C(OC(COC(=O)CC(=O)O)C(O)C(O)C(O)C(=O)OC(C)CCCCCCCCCCCCCCCc2cccc(O)c2C(=O)O)OC(CO)C(O)C1O (centres unmarked) [Caloporoside D] |
| 1.8 | CC(=O)OC1C(O)C(CO)OC(OC(COC(=O)CC(=O)O)C(O)C(O)C(O)C(=O)OC(C)CCCCCCCCCCCCCCCc2cccc(O)c2C(=O)O)C1O (centres unmarked) [Caloporoside E] |
| 1.5 | CC(=O)OC1C(OC(CO)C(O)C(O)C(O)C(=O)OC(C)CCCCCCCCCCCCCCCc2cccc(O)c2C(=O)O)OC(CO)C(O)C1O (centres unmarked) [Caloporoside F] |
